The supplement of paper PMC10307832

Legend:
Test in all cases: relative viability (nuclei count vs DMSO), 5 days (fraction); higher = more cells survive
[1] = test system: NCI-H647
Method in brief: (§1)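 Lung cancer cell lines, seeded in 1536-well plates, were treated the following day by pin tool with a single drug or with five library-drug doses (not always all listed) in √10 steps on top of a fixed anchor-drug dose. Cells were fixed and nuclei stained in one step after 5 days, and nuclei were counted. Relative viability is the nuclei count for treated wells divided by that for vehicle wells, reported as medians of duplicate plates.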

[2] = test system: NCI-H1395
Method in brief: as §1

[3] = test system: HCC-44
Method in brief: as §1

[4] = test system: NCI-H2347
Method in brief: as §1

[5] = test system: NCI-H2126
Method in brief: as §1

[6] = test system: NCI-H596
Method in brief: as §1

[7] = test system: BEN
Method in brief: as §1

[8] = test system: NCI-H1993
Method in brief: as §1

[9] = test system: NCI-H838
Method in brief: as §1

[10] = test system: NCI-H650
Method in brief: as §1

[11] = test system: NCI-H522
Method in brief: as §1

[12] = test system: LCLC-103H
Method in brief: as §1

[13] = test system: EMC-BAC-2
Method in brief: as §1

[14] = test system: NCI-H727
Method in brief: as §1

[15] = test system: 201T
Method in brief: as §1

[16] = test system: NCI-H23
Method in brief: as §1

[17] = test system: NCI-H2087
Method in brief: as §1

[18] = test system: NCI-H3122
Method in brief: as §1

[19] = test system: NCI-H441
Method in brief: as §1

[20] = test system: NCI-H2023
Method in brief: as §1

[21] = test system: LOU-NH91
Method in brief: as §1

[22] = test system: HARA
Method in brief: as §1

CC(=O)O[C@@]12CO[C@@H]1C[C@H](O)[C@@]1(C)C(=O)[C@H](O)C3=C(C)[C@@H](OC(=O)[C@H](O)[C@@H](NC(=O)OC(C)(C)C)c4ccccc4)C[C@@](O)([C@@H](OC(=O)c4ccccc4)[C@H]21)C3(C)C [Docetaxel] + Nc1ncn([C@H]2C[C@H](O)[C@@H](CO)O2)c(=O)n1 [Decitabine] (partner 2 µM)
relative viability ([1]; first compound 0.000632 µM): 0.468
relative viability ([1]; first compound 0.002 µM): 0.171
relative viability ([1]; first compound 0.006325 µM): 0.153
relative viability ([1]; first compound 0.02 µM): 0.109
relative viability ([2]; first compound 0.0002 µM): 0.709
relative viability ([2]; first compound 0.000632 µM): 0.731
relative viability ([2]; first compound 0.002 µM): 0.635
relative viability ([2]; first compound 0.006325 µM): 0.425
relative viability ([2]; first compound 0.02 µM): 0.295
relative viability ([3]; first compound 0.0002 µM): 0.96
relative viability ([3]; first compound 0.000632 µM): 0.97
relative viability ([3]; first compound 0.002 µM): 0.853
relative viability ([3]; first compound 0.006325 µM): 0.472
relative viability ([3]; first compound 0.02 µM): 0.566
relative viability ([4]; first compound 0.0002 µM): 0.637
relative viability ([4]; first compound 0.000632 µM): 0.633
relative viability ([4]; first compound 0.002 µM): 0.644
relative viability ([4]; first compound 0.006325 µM): 0.51
relative viability ([4]; first compound 0.02 µM): 0.473
relative viability ([5]; first compound 0.0002 µM): 0.622
relative viability ([5]; first compound 0.000632 µM): 0.548
relative viability ([5]; first compound 0.002 µM): 0.463
relative viability ([5]; first compound 0.006325 µM): 0.387
relative viability ([6]; first compound 0.0002 µM): 1.02
relative viability ([6]; first compound 0.000632 µM): 1.01
relative viability ([6]; first compound 0.002 µM): 1.02
relative viability ([6]; first compound 0.006325 µM): 0.639
relative viability ([6]; first compound 0.02 µM): 0.372
relative viability ([7]; first compound 0.0002 µM): 0.522
relative viability ([7]; first compound 0.000632 µM): 0.621
relative viability ([7]; first compound 0.002 µM): 0.426
relative viability ([7]; first compound 0.006325 µM): 0.417
relative viability ([7]; first compound 0.02 µM): 0.325
relative viability ([8]; first compound 0.0002 µM): 0.608
relative viability ([8]; first compound 0.000632 µM): 0.683
relative viability ([8]; first compound 0.002 µM): 0.646
relative viability ([8]; first compound 0.006325 µM): 0.585
relative viability ([8]; first compound 0.02 µM): 0.354
relative viability ([9]; first compound 0.0002 µM): 0.446
relative viability ([9]; first compound 0.000632 µM): 0.496
relative viability ([9]; first compound 0.002 µM): 0.276
relative viability ([9]; first compound 0.006325 µM): 0.181
relative viability ([9]; first compound 0.02 µM): 0.159
relative viability ([10]; first compound 0.0002 µM): 0.299
relative viability ([10]; first compound 0.000632 µM): 0.307
relative viability ([10]; first compound 0.002 µM): 0.274
relative viability ([10]; first compound 0.006325 µM): 0.278
relative viability ([10]; first compound 0.02 µM): 0.127
relative viability ([11]; first compound 0.0002 µM): 0.641
relative viability ([11]; first compound 0.000632 µM): 0.571
relative viability ([11]; first compound 0.002 µM): 0.586
relative viability ([11]; first compound 0.006325 µM): 0.448
relative viability ([11]; first compound 0.02 µM): 0.377
relative viability ([12]; first compound 0.0002 µM): 0.712
relative viability ([12]; first compound 0.000632 µM): 0.796
relative viability ([12]; first compound 0.002 µM): 0.761
relative viability ([12]; first compound 0.006325 µM): 0.713
relative viability ([12]; first compound 0.02 µM): 0.524
relative viability ([13]; first compound 0.0002 µM): 0.947
relative viability ([13]; first compound 0.000632 µM): 0.811
relative viability ([13]; first compound 0.002 µM): 0.461
relative viability ([13]; first compound 0.006325 µM): 0.46
relative viability ([13]; first compound 0.02 µM): 0.299
relative viability ([14]; first compound 0.0002 µM): 0.738
relative viability ([14]; first compound 0.000632 µM): 0.895
relative viability ([14]; first compound 0.002 µM): 0.709
relative viability ([14]; first compound 0.006325 µM): 0.663
relative viability ([14]; first compound 0.02 µM): 0.788
relative viability ([15]; first compound 0.0002 µM): 0.782
relative viability ([15]; first compound 0.000632 µM): 0.778
relative viability ([15]; first compound 0.002 µM): 0.701
relative viability ([15]; first compound 0.006325 µM): 0.47
relative viability ([15]; first compound 0.02 µM): 0.331
relative viability ([16]; first compound 0.0002 µM): 0.33
relative viability ([16]; first compound 0.000632 µM): 0.303
relative viability ([16]; first compound 0.002 µM): 0.253
relative viability ([16]; first compound 0.006325 µM): 0.256
relative viability ([16]; first compound 0.02 µM): 0.157
relative viability ([17]; first compound 0.0002 µM): 0.286
relative viability ([17]; first compound 0.000632 µM): 0.227
relative viability ([17]; first compound 0.002 µM): 0.172
relative viability ([17]; first compound 0.006325 µM): 0.0964
relative viability ([17]; first compound 0.02 µM): 0.098
relative viability ([18]; first compound 0.0002 µM): 0.441
relative viability ([18]; first compound 0.000632 µM): 0.409
relative viability ([18]; first compound 0.002 µM): 0.265
relative viability ([18]; first compound 0.006325 µM): 0.182
relative viability ([18]; first compound 0.02 µM): 0.126
relative viability ([19]; first compound 0.0002 µM): 0.25
relative viability ([19]; first compound 0.000632 µM): 0.234
relative viability ([19]; first compound 0.002 µM): 0.178
relative viability ([19]; first compound 0.006325 µM): 0.2
relative viability ([19]; first compound 0.02 µM): 0.163
relative viability ([20]; first compound 0.0002 µM): 0.233
relative viability ([20]; first compound 0.000632 µM): 0.161
relative viability ([20]; first compound 0.002 µM): 0.102
relative viability ([20]; first compound 0.006325 µM): 0.0989
relative viability ([20]; first compound 0.02 µM): 0.0701
relative viability ([21]; first compound 0.0002 µM): 0.822
relative viability ([21]; first compound 0.000632 µM): 0.841
relative viability ([21]; first compound 0.002 µM): 0.621
relative viability ([21]; first compound 0.006325 µM): 0.518
relative viability ([21]; first compound 0.02 µM): 0.379
relative viability ([22]; first compound 0.0002 µM): 0.459
relative viability ([22]; first compound 0.000632 µM): 0.314
relative viability ([22]; first compound 0.002 µM): 0.249
relative viability ([22]; first compound 0.006325 µM): 0.187
relative viability ([22]; first compound 0.02 µM): 0.111
